Data on 20 molecules can be found in US12116424B2, “Compounds and compositions for modulating Listeria virulence” (priority 2021, dated 2024).

SMILES strings stand for the structures. Where a SMILES comes first, the peptide text is derived from it. Bridges are numbered along the chain shown (N, C = ends). [ ]: non-standard residue; d: D form.

Sequence of L. monocytogenes AgrC (Q8YAR5 entry or part of it): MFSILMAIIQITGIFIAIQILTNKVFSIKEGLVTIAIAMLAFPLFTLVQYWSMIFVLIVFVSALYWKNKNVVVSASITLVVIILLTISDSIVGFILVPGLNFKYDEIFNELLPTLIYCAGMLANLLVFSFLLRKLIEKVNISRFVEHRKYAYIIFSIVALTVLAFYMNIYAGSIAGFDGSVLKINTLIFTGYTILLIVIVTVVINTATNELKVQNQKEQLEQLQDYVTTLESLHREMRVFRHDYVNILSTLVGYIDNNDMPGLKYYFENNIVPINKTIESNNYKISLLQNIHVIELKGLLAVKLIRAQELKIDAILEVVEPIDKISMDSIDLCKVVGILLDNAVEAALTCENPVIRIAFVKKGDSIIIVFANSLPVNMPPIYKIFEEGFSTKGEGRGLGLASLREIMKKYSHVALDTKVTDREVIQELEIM

In one assay the target is L. monocytogenes AgrC (Listeria monocytogenes serovar 1/2a, UniProt Q8YAR5). The experiment in a line: Fluorescence (agr-GFP) reporter agonism assay, ΔagrD reporter strain. The settings on record: read-out: Max Activation. It counts as cell-based. Also noted: Emax: dose or concentration left out as unconfirmed. An excerpt:
Construction of Listeria agr Reporter Strains. A gene block was designed and purchased from Integrated DNA Technologies to contain an EagI recognition site, the PII promoter of the agr system, the 3′ UTR of hly, super folder GFP, and a SaII recognition site. The gene block was digested with EagI and SaII, cloned into an EagI/SaII-cut pAM401 plasmid resulting in the plasmid pAM401-KW1, and then transformed into E. coli XL1-Blue competent cells. The insertion into pAM401 was confirmed using Kapa polymerase and primers DAP337 and DAP338, and additional confirmation via commercial sequencing. Purified plasmid was transformed into the conjugative E. coli S17 strain, which was used to conjugate to EGD-e and EGD-e ΔagrD to generate the agr-GFP reporter strains EGD-e:pAM401-KW1 and EGD-e ΔagrD:pAM401-KW1. Conjugation was verified using primers DAP337 and DAP338.
Fluorescence reporter assay protocol. For QS (agr) reporter assays, peptide stock solutions in DMSO (1 mM) were serially diluted in DMSO, and 2 μL of solution was added to each well in a black 96-well plate (polystyrene microtiter plate, Costar). Agonism assays utilized the ΔagrD reporter strain, with 2 μL of 100 μM AIP (final concentration 1 μM) as a positive control and 2 μL of DMSO as a negative control. Antagonism assays utilized the EGD-e reporter strain, with 2 μL of DMSO as a positive control. In both assays, wells containing only BHI media served as negative controls for normalization. An overnight culture of bacteria was diluted 1:50 in fresh BHI, then 198 μL were transferred to each well (excluding the media control wells). Plates were then incubated at 37° C. for 24 hours with shaking at 200 rpm. Fluorescence of GFP (excitation at 500 nm, emission at 540 nm) and OD600 of each well was measured using BioTek Synergy 2 plate reader. Measurements were processed by subtracting background fluorescence (BHI media), correcting by OD600, and the normalizing using the 1 μM AIP or the DMSO control for the agonism and antagonism assays, respectively. Non-linear regression curves were fitted to the data sets in GraphPad Prism 7 by using variable slope (four-parameter) dose-response analysis to obtain potency, efficacy, and statistical information about the activity of tested peptides. Each peptide was tested with three technical replicates and three biological replicates. All data derived from fluorescent reporter strains are represented with data points signifying the mean and error bars signifying the standard deviation from all replicates.
Preparation and Validation of Listeria agr Reporter Strains. In order to facilitate profiling the native AIP and its analogs for agr activity, L. monocytogenes agr GFP reporters were designed and constructed as described above (see Materials and General Methods). Briefly, a plasmid containing the agr promoter region upstream of gfp was transformed into wild-type (EGD-e) and ΔagrD L. monocytogenes strains. The wild-type reporter naturally produces its own AIP and is able to activate AgrC, which may subsequently phosphorylate AgrA for productive binding to DNA and triggering the production of GFP (FIG. 1A). The ΔagrD reporter, lacking the ability to produce its own AIP and thereby activate AgrC, is unable to trigger substantial production of GFP. However, adding exogenous AIP to the ΔagrD reporter results in an increase of fluorescence, indicating agr activity has been restored.
In the case of `CSCC[C@H](NC(=O)[C@H](CO)NC(=O)[C@H](CO)NC(=O)[C@H](CC(=O)O)NC(=O)[C@H](C)NC(=O)[C@@H](N)C(C)C)C(=O)N[C@@H](CO)C(=O)N[C@@H](CCCCN)C(=O)N[C@@H](C)C(=O)N[C@H]1CSC(=O)[C@H](C(C)C)NC(=O)[C@H](Cc2ccccc2)NC(=O)[C@H](CCSC)NC(=O)[C@H](Cc2ccccc2)NC1=O` [Compound 14-mcr, V-A-D-S-S-M-S-K-A-(C-F-M-F-V)] (H-VADSSMSKACFMFV; thioester 10-C; N-terminus assumed), the Emax worked out at 105%.

As to `CSCC[C@@H]1NC(=O)[C@H](Cc2ccccc2)NC(=O)[C@@H](NC(=O)[C@H](C)NC(=O)[C@H](CCCCN)NC(=O)[C@H](CO)NC(=O)[C@H](CCSC)NC(=O)[C@H](CO)NC(=O)[C@@H](N)CO)CSC(=O)[C@H](C(C)C)NC(=O)[C@H](Cc2ccccc2)NC1=O` [Compound 11-mer, S-S-M-S-K-A-(C-F-M-F-V)] (H-SSMSKACFMFV; thioester 7-C; N-terminus assumed), the Emax worked out at 111%.

Take `CC(C)C[C@@H]1NC(=O)[C@H](Cc2ccc(O)cc2)NC(=O)[C@H](CO)NC(=O)[C@H](C)NC(=O)[C@@H](NC(=O)[C@@H]2CCCN2C(=O)[C@H](CC(N)=O)NC(=O)[C@H](Cc2ccc(O)cc2)NC(=O)[C@H](CCCCN)NC(=O)[C@H](C)NC(=O)[C@H](C)NC(=O)[C@@H](N)CC(N)=O)CSC1=O` [Se AIP-III, N-A-A-K-Y-N-P-(C-A-S-Y-L), reference compound] (H-NAAKYNPCASYL; thioester 8-C): the Emax stood at 8.73%.

With `CSCC[C@H](NC(=O)[C@H](CO)NC(=O)[C@H](CO)NC(=O)[C@H](CC(=O)O)NC(=O)[C@H](C)N)C(=O)N[C@@H](CO)C(=O)N[C@@H](CCCCN)C(=O)N[C@@H](C)C(=O)N[C@H]1CSC(=O)[C@H](C(C)C)NC(=O)[C@H](Cc2ccccc2)NC(=O)[C@H](CCSC)NC(=O)[C@H](Cc2ccccc2)NC1=O` [Compound 13-mer, A-D-S-S-M-S-K-A-(C-F-M-F-V)] (H-ADSSMSKACFMFV; thioester 9-C; N-terminus assumed), the Emax was 108%.

`CC[C@H](C)[C@H](N)C(=O)N[C@@H](CC(N)=O)C(=O)N[C@H]1CSC(=O)[C@H](CC(C)C)NC(=O)[C@H](CC(C)C)NC(=O)[C@H](Cc2ccccc2)NC(=O)[C@H](CC(=O)O)NC1=O` [Sa AIP-III, I-N-(C-D-F-L-L), reference compound] (H-INCDFLL; thioester 3-C): the Emax was 11.3%.

On to `CSCC[C@@H]1NC(=O)[C@H](Cc2ccccc2)NC(=O)[C@@H](NC(=O)[C@H](C)NC(=O)[C@H](CCCCN)NC(=O)[C@H](CO)NC(=O)[C@@H](N)CCSC)CSC(=O)[C@H](C(C)C)NC(=O)[C@H](Cc2ccccc2)NC1=O` [Compound 9-mer, M-S-K-A-(C-F-M-F-V)] (H-MSKACFMFV; thioester 5-C; N-terminus assumed), for which the Emax is 93.6%.

Take `CC(C)[C@H](NC(=O)[C@H](CO)NC(=O)[C@@H](N)CC(=O)O)C(=O)N[C@H]1CSC(=O)[C@H](Cc2ccccc2)NC(=O)[C@H](Cc2ccc(O)cc2)NC(=O)[C@H](CO)NC(=O)[C@H](C)NC1=O` [Se AIP-I, D-S-V-(C-A-S-Y-F), reference compound] (H-DSVCASYF; thioester 4-C): the Emax is 8.65%.

For `CSCC[C@@H]1NC(=O)[C@H](Cc2ccccc2)NC(=O)[C@@H](NC(=O)[C@H](C)NC(=O)[C@H](CCCCN)NC(=O)[C@H](CO)NC(=O)[C@H](CCSC)NC(=O)[C@@H](N)CO)CSC(=O)[C@H](C(C)C)NC(=O)[C@H](Cc2ccccc2)NC1=O` [Compound 10-mer, S-M-S-K-A-(C-F-M-F-V)] (H-SMSKACFMFV; thioester 6-C; N-terminus assumed), the Emax came to 110%.

For `CSCC[C@@H]1NC(=O)[C@H](Cc2ccccc2)NC(=O)[C@@H](NC(=O)[C@H](C)NC(=O)[C@H](CCCCN)NC(=O)[C@@H](N)CO)CSC(=O)[C@H](C(C)C)NC(=O)[C@H](Cc2ccccc2)NC1=O` [Compound 8-mer, S-K-A-(C-F-M-F-V)] (H-SKACFMFV; thioester 4-C; N-terminus assumed), the Emax stood at 71.5%.

With `CSCC[C@@H]1NC(=O)[C@H](CO)NC(=O)[C@@H](NC(=O)[C@H](C)N)CSC(=O)[C@H](C)NC(=O)[C@H](Cc2ccccc2)NC1=O` [L. grayi AIP, A-(C-S-M-F-A), reference compound] (H-ACSMFA; thioester 2-C; N-terminus assumed), the Emax turned out to be 10.7%.

With `CSCC[C@@H]1NC(=O)[C@H](Cc2ccccc2)NC(=O)[C@@H](NC(C)=O)CSC(=O)[C@H](C(C)C)NC(=O)[C@H](Cc2ccccc2)NC1=O` [Ac-5-mer, Ac-(C-F-M-F-V)] (Ac-CFMFV; thioester 1-C), the Emax was 75.3%.

Staying with this assay, now noted: read-out: Max Activation Observed.
As for `CSCC[C@H]1NC(=O)[C@H](Cc2ccccc2)NC(=O)[C@@H](NC(=O)[C@H](C)NC(=O)[C@@H](N)CCCCN)CSC(=O)[C@H](C(C)C)NC(=O)[C@H](Cc2ccccc2)NC1=O` [7-mer M5dM, K-A-(C-F-dM-F-V)] (H-KACF[dM]FV; thioester 3-C; N-terminus assumed), the Emax stood at 71.9%.

With `CSCC[C@@H]1NC(=O)[C@H](Cc2ccccc2)NC(=O)[C@@H](NC(=O)[C@H](CCCCN)NC(=O)[C@@H](N)CCCCN)CSC(=O)[C@H](C(C)C)NC(=O)[C@H](Cc2ccccc2)NC1=O` [7-mer A2K, K-K-(C-F-M-F-V)] (H-KKCFMFV; thioester 3-C; N-terminus assumed), the Emax is 64.8%.

In the case of `CSCC[C@@H]1NC(=O)[C@H](Cc2ccccc2)NC(=O)[C@H](NC(=O)[C@@H](N)CCCCN)CSC(=O)[C@H](C(C)C)NC(=O)[C@H](Cc2ccccc2)NC1=O` [AIP A1K/C2dC, K-(dC-F-M-F-V)] (H-K[dC]FMFV; thioester 2-C; N-terminus assumed), the Emax was determined as 10.2%.

With `CSCC[C@H]1NC(=O)[C@H](Cc2ccccc2)NC(=O)[C@H](NC(=O)[C@H](C)N)CSC(=O)[C@H](C(C)C)NC(=O)[C@H](Cc2ccccc2)NC1=O` [AIP C2dC/M4dM, A-(dC-F-dM-F-V)] (H-A[dC]F[dM]FV; thioester 2-C; N-terminus assumed), the Emax is 35.7%.

For `CSCC[C@@H]1NC(=O)[C@H](Cc2c[nH]cn2)NC(=O)[C@@H](NC(=O)[C@H](C)N)CSC(=O)[C@H](C(C)C)NC(=O)[C@H](Cc2ccccc2)NC1=O` [AIP F3H, A-(C-H-M-F-V)] (H-ACHMFV; thioester 2-C; N-terminus assumed), the Emax came to 12.4%.

On to `CSCC[C@@H]1NC(=O)[C@H](Cc2ccc(O)cc2)NC(=O)[C@@H](NC(=O)[C@H](C)N)CSC(=O)[C@H](C(C)C)NC(=O)[C@H](Cc2ccccc2)NC1=O` [AIP F3Y, A-(C-Y-M-F-V)] (H-ACYMFV; thioester 2-C; N-terminus assumed), for which the Emax came out at 47.4%.

Turning to `CSCC[C@@H]1NC(=O)[C@H](Cc2ccccc2)NC(=O)[C@@H](NC(=O)[C@@H]2CCCN2)CSC(=O)[C@H](C(C)C)NC(=O)[C@H](Cc2ccccc2)NC1=O` [AIP A1P, P-(C-F-M-F-V)] (H-PCFMFV; thioester 2-C; N-terminus assumed), the Emax was found to be 76.8%.

Turning to `CSCC[C@@H]1NC(=O)[C@H](Cc2ccccc2)NC(=O)[C@H](NC(=O)[C@H](C)NC(=O)[C@@H](N)CCCCN)CSC(=O)[C@H](C(C)C)NC(=O)[C@H](Cc2ccccc2)NC1=O` [7-mer C3dC, K-A-(dC-F-M-F-V)] (H-KA[dC]FMFV; thioester 3-C; N-terminus assumed), the Emax came out at 7.08%.

In the case of `CSCC[C@H]1NC(=O)[C@H](Cc2ccccc2)NC(=O)[C@H](NC(=O)[C@H](C)NC(=O)[C@@H](N)CCCCN)CSC(=O)[C@H](C(C)C)NC(=O)[C@H](Cc2ccccc2)NC1=O` [7-mer C3dC/M5dM, K-A-(dC-F-dM-F-V)] (H-KA[dC]F[dM]FV; thioester 3-C; N-terminus assumed), the Emax worked out at 7.89%.

The same assay, now with this note: ΔagrD reporter.
Regarding `CSCC[C@@H]1NC(=O)[C@H](Cc2ccccc2)NC(=O)[C@@H](NC(=O)[C@@H]2CCCN2)CSC(=O)[C@H](C(C)C)NC(=O)[C@H](Cc2ccccc2)NC1=O` [AIP A1P, P-(C-F-M-F-V)] (H-PCFMFV; thioester 2-C; N-terminus assumed), the “agonism activity (in words)” value is “partial agonists with slightly diminished agonistic activity”.
